Experimental data taken from US20020156236A1, “Binding sites for phosphotyrosine binding domains” (priority 1995, published 2002).
Where a SMILES comes first, the peptide text is derived from it.

Molecular target: T1, PTB domain/c-erbB2 binding (GST-PTB domain of SHC; c-erbB2 from SKBR3 lysate) (Homo sapiens, UniProt P29353)
T1 construct: GST-PTB domain fusion proteins were expressed from recombinant baculovirus in sf9 cells; made in house; host or cells: Sf9 cells (recombinant baculovirus) for GST-PTB; c-erbB2 endogenous in SKBR3 cell lysate
T1 sequence (P29353 156-341): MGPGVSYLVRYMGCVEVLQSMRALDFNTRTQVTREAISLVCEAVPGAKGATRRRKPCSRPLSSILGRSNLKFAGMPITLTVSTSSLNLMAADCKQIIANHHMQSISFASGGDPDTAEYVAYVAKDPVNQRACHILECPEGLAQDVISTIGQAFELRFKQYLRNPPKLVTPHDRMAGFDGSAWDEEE
Assay: biochemical

Compound	IC50 (Affinity (IC50)) [µM]	IC50 (Apparent Inhibition (IC50)) [µM]	IC50 (approximate IC50, inhibition of PTB domain/c-erbB2 binding) [µM]
CC(C)C[C@H](NC(=O)[C@H](CC(N)=O)NC(=O)[C@H](CC(=O)O)NC(=O)[C@H](Cc1ccccc1)NC(=O)[C@H](C)N)C(=O)N[C@@H](Cc1ccc(OP(=O)(O)O)cc1)C(=O)N[C@@H](Cc1ccc(OP(=O)(O)O)cc1)C(=O)N[C@@H](Cc1c[nH]c2ccccc12)C(=O)N[C@@H](CC(=O)O)C(=O)N[C@@H](CCC(N)=O)C(=O)N[C@@H](CC(N)=O)C(=O)N[C@@H](CO)C(=O)O [AFDNL (pY) (pY) WDQNS, AFDNL(pY)(pY)WDQNS] (HELM PEPTIDE1{A.F.D.N.L.[O=C([C@H](Cc1ccc(OP(=O)(O)O)cc1)N[*:1])[*:2]].[O=C([C@H](Cc1ccc(OP(=O)(O)O)cc1)N[*:1])[*:2]].W.D.Q.N.S}$$$$V2.0)	0.03	–	–
CC(C)C[C@H](NC(=O)CNC(=O)[C@H](CC(C)C)NC(=O)[C@H](Cc1ccc(OP(=O)(O)O)cc1)NC(=O)[C@H](CCC(=O)O)NC(=O)[C@@H]1CCCN1C(=O)[C@H](CC(N)=O)NC(=O)[C@H](CCC(=O)O)NC(=O)[C@H](C)NC(=O)[C@@H](NC(=O)[C@@H]1CCCN1C(=O)[C@@H](NC(=O)CNC(=O)[C@@H](N)CCC(=O)O)[C@@H](C)O)[C@@H](C)O)C(=O)N[C@@H](CC(=O)O)C(=O)N[C@H](C(=O)N1CCC[C@H]1C(=O)N[C@H](C(=O)O)C(C)C)C(C)C [EGTPTAENPE (pY) LGLDVPV, EGTPTAENPE(pY)LGLDVPV] (HELM PEPTIDE1{E.G.T.P.T.A.E.N.P.E.[O=C([C@H](Cc1ccc(OP(=O)(O)O)cc1)N[*:1])[*:2]].L.G.L.D.V.P.V}$$$$V2.0)	–	1	~1
CC(C)C[C@H](NC(=O)[C@H](CCC(N)=O)NC(=O)[C@H](CC(N)=O)NC(=O)[C@H](CCC(N)=O)NC(=O)[C@H](CO)NC(=O)[C@H](Cc1ccc(OP(=O)(O)O)cc1)NC(=O)[C@H](Cc1c[nH]c2ccccc12)NC(=O)[C@H](CO)NC(=O)[C@@H](N)CC(=O)O)C(=O)N[C@@H](Cc1ccccc1)C(=O)N[C@@H](CC(=O)O)C(=O)N[C@@H](CO)C(=O)N[C@@H](Cc1ccccc1)C(=O)N[C@@H](C)C(=O)N1CCC[C@H]1C(=O)N[C@@H](CCC(=O)O)C(=O)NCC(=O)N[C@@H](Cc1ccc(OP(=O)(O)O)cc1)C(=O)N1CCC[C@H]1C(=O)N[C@@H](C)C(=O)N[C@@H](CC(N)=O)C(=O)O [DSW (pY) SQNQLFDSFAPEG (pY) PAN] (HELM PEPTIDE1{D.S.W.[O=C([C@H](Cc1ccc(OP(=O)(O)O)cc1)N[*:1])[*:2]].S.Q.N.Q.L.F.D.S.F.A.P.E.G.[O=C([C@H](Cc1ccc(OP(=O)(O)O)cc1)N[*:1])[*:2]].P.A.N}$$$$V2.0)	> 30	–	–
